Data: ChEMBL document CHEMBL3872210, “Synthesis and antiproliferative mechanism of action of pyrrolo[3',2':6,7] cyclohepta[1,2-d]pyrimidin-2-amines as singlet oxygen photosensitizers” (Eur J Med Chem, 2016)
The source made the active and inactive calls. No cut-off for these calls is given here.

Experiments:
[1] = Photocytotoxicity against human MCF7 cells assessed as reduction in cell survival irradiated with 1.5 J/cm2 UV-light for 5 mins measured after 48 hrs by MTT assay; type: functional, cell-based; conditions: MCF7, light or radiation study
[2] = Photocytotoxicity against human HT-29 cells assessed as reduction in cell survival irradiated with 1.5 J/cm2 UV-light for 5 mins measured after 48 hrs by MTT assay; type: functional, cell-based; conditions: HT-29, light or radiation study
[3] = system: MCF7; assay: Induction of lysosomal dysfunction in human MCF7 cells at 2 uM irradiated with 1.5 J/cm2 UV-light measured after 2 hrs by Lysotracker green DND staining based confocal microscopic method; type: functional, cell-based
[4] = Induction of singlet oxygen sensitization in aqueous acetonitrile solution irradiated with laser flash photolysis assessed as signal intensity absorbance at 630 nanometer by spectroscopic method; type: physicochemical; conditions: buffer
[5] = Dark toxicity against human HT-29 cells assessed as reduction in cell survival measured after 30 mins by MTT assay; type: cell-based
[6] = Induction of apoptosis in human MCF7 cells assessed as early apoptotic cells at photocytotoxic EC50 irradiated with 1.5 J/cm2 UV-light measured after 6 hrs by 7-AAD/PE annexin V staining based FACS analysis (reference value: 17 %); type: functional
[7] = Selectivity index, ratio of CC50 for cytotoxicity against human HeLa cells to EC50 for photocytotoxicity against human HeLa cells; type: toxicity, cell-based; conditions: read-out: Ratio CC50/EC50
[8] = Photocytotoxicity against human HeLa cells assessed as reduction in cell survival irradiated with 1.5 J/cm2 UV-light for 5 mins measured after 48 hrs by MTT assay; type: functional, cell-based; conditions: light or radiation study
[9] = Induction of singlet oxygen sensitization in aqueous acetonitrile solution irradiated with laser flash photolysis assessed as signal intensity absorbance at 355 nanometer by spectroscopic method; type: physicochemical; conditions: buffer
[10] = system: MCF7; assay: Induction of lysosomal dysfunction in human MCF7 cells at 2 uM irradiated with 1.5 J/cm2 UV-light measured after 20 mins by Lysotracker green DND staining based confocal microscopic method; type: functional, cell-based
[11] = Dark toxicity against human HeLa cells assessed as reduction in cell survival measured after 30 mins by MTT assay; type: cell-based
[12] = Induction of mitochondrial dysfunction in human MCF7 cells at 2 uM measured after 20 mins under dark condition by Mitotracker orange CMTM-ROS/Nuclear green staining based confocal microscopic method; type: cell-based; conditions: mcf7, 20 min
[13] = Dark toxicity against human MCF7 cells assessed as reduction in cell survival measured after 30 mins by MTT assay; type: cell-based
[14] = system: MCF7; assay: Induction of lysosomal membrane impairment in human MCF7 cells assessed as increase in dye accumulation in cytoplasm at 2 uM irradiated with 1.5 J/cm2 UV-light measured after 20 mins by Lysotracker green DND staining based confocal microscopic method; type: functional, cell-based
[15] = Induction of apoptosis in human MCF7 cells assessed as late apoptotic cells at photocytotoxic EC50 irradiated with 1.5 J/cm2 UV-light measured after 6 hrs by 7-AAD/PE annexin V staining based FACS analysis; type: functional
[16] = Selectivity index, ratio CC50 for cytotoxicity against human MCF7 cells to EC50 for photocytotoxicity against human MCF7 cells; type: toxicity, cell-based; conditions: read-out: Ratio CC50/EC50
[17] = system: MCF7; assay: Induction of mitochondrial dysfunction in human MCF7 cells assessed as accumulation of mitochondrial signal at perinuclear level at 2 uM irradiated with 1.5 J/cm2 UV-light measured after 20 to 120 mins by Mitotracker orange CMTM-ROS/Nuclear green staining based confocal microscopic method; type: functional, cell-based
[18] = Induction of singlet oxygen photogeneration in aqueous acetonitrile solution of ADPA assessed as photobleaching of anthracene absorption upon irradiation at 2.3 10^-5M at 315 nanometer after 1 hr by UV absorption method; type: physicochemical; conditions: buffer
[19] = Induction of lysosomal dysfunction in human MCF7 cells at 2 uM measured after 20 mins under dark condition by Lysotracker green DND staining based confocal microscopic method; type: cell-based; conditions: mcf7, 20 min
[20] = system: MCF7; assay: Induction of mitochondrial dysfunction in human MCF7 cells assessed as clustering and swelling in location at 2 uM irradiated with 1.5 J/cm2 UV-light measured after 20 to 120 mins by Mitotracker orange CMTM-ROS/Nuclear green staining based confocal microscopic method; type: functional, cell-based
[21] = system: MCF7; assay: Dark toxicity against human MCF7 cells assessed as increase in production of radical oxygen species at 1 to 4 uM after 2 hrs by H2DCFDA dye based fluorescence assay; type: cell-based; conditions: mcf7, 2 h
[22] = Induction of apoptosis in human MCF7 cells assessed as necrotic cells at photocytotoxic EC50 irradiated with 1.5 J/cm2 UV-light measured after 6 hrs by 7-AAD/PE annexin V staining based FACS analysis; type: functional
[23] = Selectivity index, ratio CC50 for cytotoxicity against human HT-29 cells to EC50 for photocytotoxicity against human HT-29 cells; type: toxicity, cell-based; conditions: read-out: Ratio CC50/EC50
[24] = Photocytotoxicity against human MCF7 cells assessed as increase in production of radical oxygen species at 4 uM pretreated for 30 mins followed by 1.5 J/cm2 UV-light irradiation for 5 mins measured after 2 hrs by H2DCFDA dye based fluorescence assay relative to control; type: functional
[25] = Photocytotoxicity against human MCF7 cells assessed as increase in production of radical oxygen species at 400 nM pretreated for 30 mins followed by 1.5 J/cm2 UV-light irradiation for 5 mins measured after 6 hrs by H2DCFDA dye based fluorescence assay relative to control; type: functional
[26] = system: MCF7; assay: Induction of mitochondrial fusion in human MCF7 cells at 400 nM irradiated with 1.5 J/cm2 UV-light measured after 6 hrs by Mitotracker orange CMTM-ROS/Nuclear green staining based confocal microscopic method; type: functional, cell-based
[27] = system: MCF7; assay: Induction of lysosomal dysfunction in human MCF7 cells at 400 nM irradiated with 1.5 J/cm2 UV-light measured after 6 hrs by Lysotracker green DND staining based confocal microscopic method; type: functional, cell-based
[28] = Photocytotoxicity against human MCF7 cells assessed as increase in production of radical oxygen species at 400 nM pretreated for 30 mins followed by 1.5 J/cm2 UV-light irradiation for 5 mins measured after 2 hrs by H2DCFDA dye based fluorescence assay relative to control; type: functional
[29] = Induction of singlet oxygen sensitization in aqueous acetonitrile solution irradiated with laser flash photolysis assessed as signal intensity absorbance at 610 nanometer by spectroscopic method; type: physicochemical; conditions: buffer
[30] = system: MCF7; assay: Dark toxicity against human MCF7 cells assessed as increase in production of radical oxygen species at 4 uM after 2 hrs by H2DCFDA dye based fluorescence assay; type: cell-based; conditions: mcf7, 2 h

SMILES | EC50 [1] | EC50 [2] | CC50 at 0.5 h [5] | Activity [6] | selectivity ratio [7] | EC50 [8] | Activity [9] | CC50 at 0.5 h [11] | Activity [12] | CC50 at 0.5 h [13] | selectivity ratio [16] | Activity [18] | Activity [19] | further results
CCOC(=O)c1cc2c(n1C)-c1nc(NC3CCCCC3)ncc1CCC2 | 0.08 µM | 0.09 µM | > 100 µM | 47% | > 1270 | 0.08 µM | 0.012 | > 100 µM | Non-Toxic | > 100 µM | > 1250 | Active | Non-Toxic | Activity [3]: Active; Activity [4]: 0.052; Activity [10]: Active; Activity [14]: Active; Activity [15]: 13%; Activity [17]: Active; Activity [20]: Active; Activity [21]: Non-Toxic; Activity [22]: 11%; selectivity ratio [23]: > 1110; Activity [24]: 222%
CCCCCCCCCCCCCC(=O)O[C@@H]1[C@@H](C)[C@@]2(O)[C@@H](C=C(CO)C[C@]3(O)C(=O)C(C)=C[C@@H]23)[C@@H]2C(C)(C)[C@]12OC(C)=O [PHORBOL MYRISTATE ACETATE] |  |  |  |  |  |  |  |  |  |  |  |  |  | Activity [25]: 420%; Activity [26]: Active; Activity [27]: Active; Activity [28]: 120%
Cn1c(C(N)=O)cc2c1-c1nc(N)ncc1CCC2 | 66 µM | > 100 µM | > 100 µM | 22% | > 11 | 8.75 µM | 0.012 | > 100 µM | Non-Toxic | > 100 µM | > 1.5 | Active | Non-Toxic | Activity [29]: 0.0146; Activity [30]: Non-Toxic
